Values after ≈ are worked out from the molar mass of the structure shown.

Holding throughout (type): functional
Test [1] deals with Rhodotorula mucilaginosa. The test can be described thus: Antifungal activity against Rhodotorula rubra DSM 70403 after 72 hrs by disk diffusion method.
Test [2] has as its system Micrococcus luteus. Put plainly: Antibacterial activity against Micrococcus luteus La 2971 after 24 hrs by disk diffusion method.
Test [3] deals with Candida albicans. Put plainly: Antifungal activity against Candida albicans ATCC 10231 after 72 hrs by disk diffusion method.
In test [4] the test system is Kluyveromyces marxianus. The test can be described thus: Antifungal activity against Kluyveromyces fragilis NRRL 2415 after 72 hrs by disk diffusion method.
The test system of test [5] is Hanseniaspora guilliermondii. Put plainly: Antifungal activity against Hanseniaspora guilliermondii DSM 3432 after 72 hrs by disk diffusion method.
Test [6] concerns Debaryomyces hansenii. Put plainly: Antifungal activity against Debaryomyces hansenii DSM 70238 after 72 hrs by disk diffusion method.
Test [7] relates to Escherichia coli. The test can be described thus: Antibacterial activity against Escherichia coli ATCC 11230 after 24 hrs by dilution method.
Test [8] deals with Staphylococcus aureus. The test can be described thus: Antibacterial activity against Staphylococcus aureus ATCC 6538 after 24 hrs by dilution method.
Test [9] concerns Klebsiella pneumoniae. Put plainly: Antibacterial activity against Klebsiella pneumoniae UC57 after 24 hrs by dilution method.
In test [10] the test system is Escherichia coli. Put plainly: Antibacterial activity against Escherichia coli ATCC 11230 after 24 hrs by disk diffusion method.
Test [11] concerns Staphylococcus aureus. The test can be described thus: Antibacterial activity against Staphylococcus aureus ATCC 6538 after 24 hrs by disk diffusion method.
Test [12] relates to Klebsiella pneumoniae. Put plainly: Antibacterial activity against Klebsiella pneumoniae UC57 after 24 hrs by disk diffusion method.
The test system of test [13] is Pseudomonas aeruginosa. Put plainly: Antibacterial activity against Pseudomonas aeruginosa ATCC 27853 after 24 hrs by disk diffusion method.
Test [14] relates to Proteus vulgaris. Put plainly: Antibacterial activity against Proteus vulgaris ATCC 8427 after 24 hrs by disk diffusion method.
Test [15] deals with Bacillus cereus. Put plainly: Antibacterial activity against Bacillus cereus ATCC 7064 after 24 hrs by disk diffusion method.
For test [16], the system named is Mycolicibacterium smegmatis. The test can be described thus: Antibacterial activity against Mycobacterium smegmatis CCM 2067 after 24 hrs by disk diffusion method.
The test system of test [17] is Listeria monocytogenes. Put plainly: Antibacterial activity against Listeria monocytogenes ATCC 15313 after 24 hrs by disk diffusion method.
Test [18] deals with Pseudomonas aeruginosa. The test can be described thus: Antibacterial activity against Pseudomonas aeruginosa ATCC 27853 after 24 hrs by dilution method.
Test [19] deals with Proteus vulgaris. The test can be described thus: Antibacterial activity against Proteus vulgaris ATCC 8427 by after 24 hrs dilution method.
In test [20] the test system is Bacillus cereus. The test can be described thus: Antibacterial activity against Bacillus cereus ATCC 7064 after 24 hrs by dilution method.
Test [21] concerns Mycolicibacterium smegmatis. Put plainly: Antibacterial activity against Mycobacterium smegmatis CCM 2067 after 24 hrs by dilution method.
Test [22] deals with Listeria monocytogenes. Put plainly: Antibacterial activity against Listeria monocytogenes ATCC 15313 after 24 hrs by dilution method.
The subject of test [23] is Micrococcus luteus. The test can be described thus: Antibacterial activity against Micrococcus luteus La 2971 after 24 hrs by dilution method.
Test [24] relates to Candida albicans. Put plainly: Antifungal activity against Candida albicans ATCC 10231 after 48 hrs by dilution method. Conditions: ATCC 10231, 48 h.
The subject of test [25] is Kluyveromyces marxianus. The test can be described thus: Antifungal activity against Kluyveromyces fragilis NRRL 2415 after 48 hrs by dilution method. Conditions: NRRL 2415, 48 h.
Test [26] has as its system Rhodotorula mucilaginosa. Put plainly: Antifungal activity against Rhodotorula rubra DSM 70403 after 48 hrs by dilution method. Conditions: DSM 70403, 48 h.
The subject of test [27] is Hanseniaspora guilliermondii. The test can be described thus: Antifungal activity against Hanseniaspora guilliermondii DSM 3432 after 48 hrs by dilution method. Conditions: DSM 3432, 48 h.
For test [28], the system named is Debaryomyces hansenii. The test can be described thus: Antifungal activity against Debaryomyces hansenii DSM 70238 after 48 hrs by dilution method. Conditions: DSM 70238, 48 h.
In test [29] the test system is Escherichia coli. The test can be described thus: Antibacterial activity against Escherichia coli ATCC 11230 at 30 ug after 24 hrs by disk diffusion method. Conditions: ATCC 11230, 24 h, read-out: IZ.
In test [30] the test system is Staphylococcus aureus. Put plainly: Antibacterial activity against Staphylococcus aureus ATCC 6538 at 30 ug after 24 hrs by disk diffusion method. Conditions: ATCC 6538, 24 h, read-out: IZ.
Test [31] concerns Klebsiella pneumoniae. Put plainly: Antibacterial activity against Klebsiella pneumoniae UC57 at 30 ug after 24 hrs by disk diffusion method. Conditions: read-out: IZ.
For test [32], the system named is Pseudomonas aeruginosa. The test can be described thus: Antibacterial activity against Pseudomonas aeruginosa ATCC 27853 at 30 ug after 24 hrs by disk diffusion method. Conditions: ATCC 27853, 24 h, read-out: IZ.
Test [33] concerns Proteus vulgaris. Put plainly: Antibacterial activity against Proteus vulgaris ATCC 8427 at 30 ug after 24 hrs by disk diffusion method. Conditions: ATCC 8427, 24 h, read-out: IZ.
The subject of test [34] is Bacillus cereus. The test can be described thus: Antibacterial activity against Bacillus cereus ATCC 7064 at 30 ug after 24 hrs by disk diffusion method. Conditions: ATCC 7064, 24 h, read-out: IZ.
The subject of test [35] is Mycolicibacterium smegmatis. The test can be described thus: Antibacterial activity against Mycobacterium smegmatis CCM 2067 at 30 ug after 24 hrs by disk diffusion method. Conditions: CCM 2067, 24 h, read-out: IZ.
Test [36] deals with Listeria monocytogenes. The test can be described thus: Antibacterial activity against Listeria monocytogenes ATCC 15313 at 30 ug after 24 hrs by disk diffusion method. Conditions: ATCC 15313, 24 h, read-out: IZ.
In test [37] the test system is Micrococcus luteus. The test can be described thus: Antibacterial activity against Micrococcus luteus La 2971 at 30 ug by disk diffusion method. Conditions: read-out: IZ.
Test [38] concerns Escherichia coli. The test can be described thus: Antibacterial activity against Escherichia coli ATCC 11230 at 10 ug after 24 hrs by disk diffusion method. Conditions: ATCC 11230, 24 h, read-out: IZ.
Test [39] relates to Staphylococcus aureus. The test can be described thus: Antibacterial activity against Staphylococcus aureus ATCC 6538 at 10 ug after 24 hrs by disk diffusion method. Conditions: ATCC 6538, 24 h, read-out: IZ.
The test system of test [40] is Klebsiella pneumoniae. The test can be described thus: Antibacterial activity against Klebsiella pneumoniae UC57 at 10 ug after 24 hrs by disk diffusion method. Conditions: read-out: IZ.
Test [41] has as its system Pseudomonas aeruginosa. Put plainly: Antibacterial activity against Pseudomonas aeruginosa ATCC 27853 at 10 ug after 24 hrs by disk diffusion method. Conditions: ATCC 27853, 24 h, read-out: IZ.
Test [42] has as its system Proteus vulgaris. Put plainly: Antibacterial activity against Proteus vulgaris ATCC 8427 at 10 ug after 24 hrs by disk diffusion method. Conditions: ATCC 8427, 24 h, read-out: IZ.
The subject of test [43] is Bacillus cereus. The test can be described thus: Antibacterial activity against Bacillus cereus ATCC 7064 at 10 ug after 24 hrs by disk diffusion method. Conditions: ATCC 7064, 24 h, read-out: IZ.
Test [44] concerns Mycolicibacterium smegmatis. The test can be described thus: Antibacterial activity against Mycobacterium smegmatis CCM 2067 at 10 ug after 24 hrs by disk diffusion method. Conditions: CCM 2067, 24 h, read-out: IZ.
For test [45], the system named is Listeria monocytogenes. The test can be described thus: Antibacterial activity against Listeria monocytogenes ATCC 15313 at 10 ug after 24 hrs by disk diffusion method. Conditions: ATCC 15313, 24 h, read-out: IZ.
Test [46] relates to Micrococcus luteus. Put plainly: Antibacterial activity against Micrococcus luteus La 2971 at 10 ug by disk diffusion method. Conditions: read-out: IZ.

In the case of `c1ccc2[nH]c(CCSSCCc3nc4ccccc4[nH]3)nc2c1`, the “inhibition zone (IZ)” value turned out to be 12 mm in test [1]; 12 mm in test [2]; 14 mm in [3]; 15 mm in test [4]; 12 mm in test [5]; 11 mm in [6]. Besides, the “inhibition zone (IZ)” value came to 12 mm in test [10]; 14 mm in test [11]; 11 mm in test [12]; 11 mm in test [13]; 14 mm in test [14]; 10 mm in test [15]. Besides, the “inhibition zone (IZ)” value in [16] and in test [17] was 13 mm in each case. Besides, the MIC in test [7] (ATCC 11230, 24 h) came to 50 µg/mL (≈ 141 µM); in [8] (ATCC 6538, 24 h) it was 12.5 µg/mL (≈ 35.3 µM); in test [9] it was 50 µg/mL (≈ 141 µM); in test [18] (ATCC 27853, 24 h), 50 µg/mL (≈ 141 µM); in [19] (ATCC 8427, 24 h) it was 12.5 µg/mL (≈ 35.3 µM); in [20] (ATCC 7064, 24 h), 100 µg/mL (≈ 282 µM). Besides, the MIC in test [21] (CCM 2067, 24 h) came to 12.5 µg/mL (≈ 35.3 µM); in [22] (ATCC 15313, 24 h), 12.5 µg/mL (≈ 35.3 µM); in test [23], 25 µg/mL (≈ 70.5 µM); in [24], 12.5 µg/mL (≈ 35.3 µM); in test [25], 6.25 µg/mL (≈ 17.6 µM); in [26] it was 25 µg/mL (≈ 70.5 µM). For the same molecule, the MIC stood at 12.5 µg/mL (≈ 35.3 µM) in [27] and 25 µg/mL (≈ 70.5 µM) in test [28].

Take `CN(C)[C@@H]1C(O)=C(C(N)=O)C(=O)[C@@]2(O)C(O)=C3C(=O)c4c(O)cccc4[C@@](C)(O)[C@H]3C[C@@H]12` [TETRACYCLINE]: the zone of inhibition at 30 µg/disc in test [29] stood at 28 mm; in test [30] it was 26 mm; in test [31] it was 30 mm; in test [32], 34 mm; in test [33], 26 mm; in test [34], 25 mm. The zone of inhibition at 30 µg/disc stood at 24 mm in [35], 28 mm in test [36] and 2 mm in [37].

Regarding `CC1(C)S[C@@H]2[C@H](NC(=O)Cc3ccccc3)C(=O)N2[C@H]1C(=O)O` [PENICILLIN G], the zone of inhibition at 10 µg/disc in [38] turned out to be 18 mm; in test [39], 13 mm; in test [40] it was 18 mm; in test [41], 8 mm; in test [42], 10 mm; in [43], 14 mm. Also, the zone of inhibition at 10 µg/disc in test [44] worked out at 15 mm; in test [45], 10 mm; in [46], 36 mm.

On to GENTAMICIN, for which the MIC in test [7] amounted to 6.25 µg/mL; in test [8] it was 25 µg/mL; in [9] it was 6.25 µg/mL; in [18], 6.25 µg/mL; in test [19], 6.25 µg/mL; in [20] it was 6.25 µg/mL. Besides, the MIC was found to be 12.5 µg/mL in test [21], 12.5 µg/mL in [22] and 25 µg/mL in test [23].

(Values after ChEMBL document CHEMBL1147899, “Raman, FT-IR, NMR spectroscopic data and antimicrobial activity of bis[micro2-(benzimidazol-2-yl)-2-ethanethiolato-N,S,S-chloro-palladium(II)] dimer, [(micro2-CH2CH2NHNCC6H4)PdCl]2.C2H5OH complex” (2007).)
